Here are results for six substances from PMC12516689, “Stimuli-Responsive Hydrogels from Liquid–Liquid Phase Separations of FUS-Derived Peptides” (ACS Applied Materials & Interfaces, 2025).

Data set [1] in a line: Hydrogel formation, inverted test tube analysis. In kind it is physicochemical. The settings on record: for Concentration at which self-supporting hydrogel is obtained: sonication. The protocol: Peptide solutions were dissolved in PBS at concentrations varying from 2.0 μM to 2.0 mM. To allow a complete dissolution, samples were sonicated for 15 min. Hydrogels were prepared by adding PBS to the peptide powder to a final concentration of 2 or 3 wt %. After sonication, samples were stored at 4 °C overnight and the hydrogel formation was macroscopically evaluated through inverted test tube analyses.
Self-supporting hydrogels of L1-L2 and of L1-L2-L3 were obtained starting from a concentration of 2 wt % when 10 mM PBS was used in place of water (inverted test tube, Figure a). […] From a biomedical perspective, achieving gelation at lower peptide concentrations is highly desirable to minimize potential cytotoxicity and facilitate in vivo applications. […] This sequence, in comparison to the L1 and L2 motifs, features a higher content of glycine residues and a single tyrosine, while L1 and L2 each contain two. The different behavior of L3 might therefore arise from a reduced number of π–π stacking interactions, a known driving factor in the gelation process, or the higher entropic cost associated with glycine residues.

Data set [2] can be described thus: Rheological studies of hydrogels as a function of temperature. In kind it is physicochemical. The settings on record: amplitude 0.1%, frequency 1 Hz; for G′ (storage modulus) upon cooling back to 4 °C / G′ (storage modulus) upon heating to 80 °C / G′ (storage modulus), initial value at 4 °C: 2 wt % hydrogel in PBS; for G′ (storage modulus) upon cooling back to 4 °C: after cooling ramp 80 to 4 °C; for G′ (storage modulus) upon heating to 80 °C: end of heating ramp 4 to 80 °C; for G′ (storage modulus), initial value at 4 °C: start of heating ramp 4 to 80 °C. The procedure: Rheological measurements of freshly preformed hydrogels (1000 μL) were performed with a rotational controlled-stress Haake Mars 40 rheometer (Thermo Fisher, Germany) by using a 3.5 cm diameter flat-plate geometry (P35/TI) with a gap of 0.5 mm. The analyses were conducted at different temperatures increasing from 4 to 80 °C and then decreasing from 80 to 4 °C. Amplitude (γ) was set at 0.1% and Frequency 1 Hz. G′ (storage modulus) and G″ (loss modulus) are reported as a function of the temperature.
To study the mechanical behavior of the matrices, hydrogels from L1-L2-L3 and L1-L2 sequences were subjected to rheological measurements. The storage (G′) and loss (G″) moduli, two key parameters describing the viscoelastic behavior of materials, were studied as a function of the temperature. Measurements were conducted across the entire temperature range, increasing from 4 to 80 °C and subsequently decreasing from 80 to 4 °C. […] However, the heating/cooling process induced significant increase in the rigidity of both samples. […] For the L1-L2 sample, the initial values of G′ at these temperatures were 1 Pa at 4 °C, 32 Pa at 80 °C, and 7314 Pa upon cooling back at 4 °C. To enhance the hydrogel disaggregation response to temperature increase, we adopted a design strategy focused on incorporating disruptive elements into the peptide sequences. This approach stems from the insights that the L3 sequence has the potential to inhibit the aggregation of the multi-LARK peptides. Following this rationale, we initially synthesized a multi-LARK sequence made of L3-L2-L3 LCDs (Figure S13a).

Data set [3] in a line: Hydrogel stability in contact with acidic and basic solutions. It counts as physicochemical. Conditions: preformed hydrogels, room temperature, macroscopically observed up to 7 days. The protocol: To address the impact of the primary sequence on the hydrogel’s sensitivity to external stimuli, their mechanical behavior as a response to pH and temperature triggers was tested. Preformed L1-L2 and L1-L2-L3 hydrogels were put in contact with both acidic (pH 5) and basic (pH 10) solutions at room temperature and were macroscopically observed over time up to 7 days. […] This behavior can be rationalized considering that the presence of ionizable acidic or basic amino acids typically drives pH-responsive properties in peptide-based systems. In our case, the sequences contain only a single acidic residue (Asp, D), which is located within the linker region rather than in the LARKS domains considered to be responsible for driving the gelation process.

The nature of data set [4]: Aggregation kinetics followed by self-fluorescence in microplate reader. It counts as physicochemical. The settings on record: 2.0 mM peptide in PBS; λex 355 nm, emission 460 nm over 300 h; 96-well plate, orbital shake 200 rpm; triplicate. The procedure: Aggregation kinetics of peptide samples at 2.0 mM were followed by using a FLUOstar Omega (BMG LABTECH) microplate reader. Aliquots of 100 μL of each sample were placed in wells of a 96-well plate and covered with an aluminum foil to avoid evaporation of the solvent. Experimental settings were: λex = 355 nm, gain 1000, bottom optic, orbital shake 200 rpm between readings. Emission intensity at 460 nm was recorded over 300 h and subtracted for the blank. Experiments were conducted in triplicate.
The aggregation kinetics of the four multi-LARK sequences were monitored using fluorescence experiments, by exploiting the photoemissive behavior of the peptides in the blue field. As the fluorescence emission of these sequences require the aggregation state, as shown by the analyses conducted in solution, it represents a convenient probe of the self-assembly process. Upon excitation at 355 nm of 2.0 mM peptide solutions, the emission at 460 nm was recorded across a 300 h period (Figure S9). By reporting the fluorescence intensity as a function of time, we observed consistent trends across the four multi-LARKS samples, characterized by three different kinetic phases. […] This lag-phase was followed by a linear increase of the fluorescence signal at 460 nm in a relatively short period for all the samples (between 5 and 30 h) except in the case of L1-L2, where this second phase was longer (∼80 h). […]

The nature of data set [5]: Critical aggregation concentration (CAC) by intrinsic self-fluorescence. In kind it is physicochemical. The settings on record: 10 mM PBS pH 7.4, no external probe, excitation 310 nm, emission intensity at 407 or 417 nm vs concentration, break point, 20 °C. The procedure:
A Shimadzu RF-6000 (Kyoto, Japan) spectrofluorometer was used to perform fluorescence measurements. Samples were placed in a 10.0 mm × 5.00 mm quartz cell and the settings used for the measurement were excitation and emission bandwidths of 2.5 nm and temperature of 20 °C. The critical aggregation concentration (CAC) of the peptides was estimated through the evaluation of the self-fluorescence behavior of the peptides. After excitation at 310 nm, the intensity of the emission band at 407 or 417 nm was checked and plotted as a function of concentration. Spectra were also recorded in excitation mode.
The ability of the multi-LARKS to self-assemble was evaluated in physiological buffer conditions (10 mM PBS, pH 7.4). Critical aggregation concentrations (CACs), designated as the minimum concentrations at which they spontaneously self-assemble, were assessed in the absence of any external fluorescence probe and by detecting the nonaromatic intrinsic self-fluorescence at increasing peptide concentrations. […] All the multi-LARK sequences here studied presented a near-UV emission, with a maximum of excitation at 310 nm.
By plotting the fluorescence intensity at the maximum emission wavelength as a function of concentration, CAC values, calculated at the break point, resulted 128 μM, 236 μM, 153 μM and 175 μM for L1-L2-L3, L1-L2, L1-L3, and L2-L3, respectively (see Table S2). […]

For data set [6] the following is noted: dissolved in water, overnight incubation at 4 °C; ref Eisenberg and co-workers; cited from earlier work.

For “Ac-STGGYGGDTSYSSYGQSNGPSTGGYG-NH2 [L3-L2-L3]”, the Hydrogel formation result in data set [1] (concentrations ranging from 2 to 5 wt %) is recorded as “unable to form hydrogels”.

For the substance Ac-STGGYSGDTSYSSYGQS-NH2 [L1**-L2], the “Temperature at which hydrogel undergoes breakdown (unable to reform upon cooling)” value in data set [2] (3 wt % hydrogel in PBS, heating 4 to 80 °C) stood at 55 °C. Besides, the “Concentration at which self-supporting hydrogel is obtained” value in data set [1] (10 mM PBS, overnight at 4 °C) turned out to be 3 wt %.

Regarding Ac-SYGGYSGDTSYSSYGQS-NH2 [L1*-L2], in data set [2], the “G′ (storage modulus) upon cooling back to 4 °C” value came to 154332 Pa; the “G′ (storage modulus) upon heating to 80 °C” value was 497 Pa; the “G′ (storage modulus), initial value at 4 °C” value is 818 Pa. Further, in data set [1] (10 mM PBS, overnight at 4 °C), the “Concentration at which self-supporting hydrogel is obtained” value amounted to 2 wt %.

For the substance Ac-SYSGYSGDTSYSSYGQS-NH2 [L1-L2], the Emission maximum of aggregation-induced fluorescence turned out to be 400 nm. The “Hydrogel stability to acidic (pH 5) and basic (pH 10) solutions” value in data set [3] is “No significant variations”.

For “Ac-SYSGYSGDTSYSSYGQSNGPSTGGYG-NH2 [L1-L2-L3]”, the “Hydrogel stability to acidic (pH 5) and basic (pH 10) solutions” value in data set [3] is “No significant variations”. In addition, in data set [2], the “G′ (storage modulus) upon cooling back to 4 °C” value worked out at 75762 Pa; the “G′ (storage modulus) upon heating to 80 °C” value worked out at 4708 Pa; the “G′ (storage modulus), initial value at 4 °C” value is 1967 Pa. In addition, the “Lag-phase duration (constant fluorescence intensity) of aggregation kinetics” value in data set [4] was about 50 h. Besides, in data set [1] (10 mM PBS, overnight at 4 °C), the “Concentration at which self-supporting hydrogel is obtained” value is given as at least 2 wt %. Also, in data set [5], the “Critical aggregation concentration (CAC)” value was found to be 128 µM. The “Concentration at which hydrogel forms in water” value in data set [6] is recorded as 5 wt %.

On to Ac-SYSGYSNGPSTGGYG-NH2 [L1-L3], for which, in data set [4], the “Lag-phase duration (constant fluorescence intensity) of aggregation kinetics” value was about 50 h. Moreover, the Hydrogel formation result in data set [1] (10 mM PBS, overnight at 4 °C) is given as “no gel formation”. For the same substance, the “Critical aggregation concentration (CAC)” value in data set [5] was found to be 153 µM.
